Patent publication US20070249540A1, “Methods for Inhibiting Proteasome and Heat Shock Protein 90” (priority 2004, published 2007)

What was measured:
[1] = tested on: MCF-7 breast cancer cells; test: Sensitization of MCF-7 breast cancer cells to the cytotoxic effects of Taxol; type: cell-based, human; details: MCF-7, 0.01 μM Taxol alone
Protocol: Tumor cells are allowed to proliferate in the presence of an inhibitory agent for 48 to 96 hrs. At the end of the assay, tumor cell proliferation in the presence of the inhibitory agent is determined either by cell counting or BrdU incorporation and expressed as % of Control Proliferation, where the term “Control Proliferation” refers to tumor cell proliferation in the absence of any inhibitory or other agents.
MCF-7 breast cancer cells were plated onto a 24-well plate at a density of 208,000 cells per well and allowed to adhere overnight. Subsequently, the cells were treated with 0.01 μM taxol, a concentration known to inhibit 50% of MCF-7 cell proliferation. 6 hrs after the addition of taxol, half of the wells received 0.001 μM SEQ ID NO: 2. […] Cell proliferation of control (untreated) MCF-7 cells and MCF-7 cells treated either with Taxol or SEQ ID NO: 2 alone or with the combination of Taxol and SEQ ID NO: 2 was determined.

[2] = tested on: MCF-7 breast cancer cells; details: 0.01 μM taxol, stated as known; cited from earlier work

## CC(=O)O[C@H]1C(=O)[C@@]2(C)[C@H]([C@H](OC(=O)c3ccccc3)[C@]3(O)C[C@H](OC(=O)[C@H](O)[C@@H](NC(=O)c4ccccc4)c4ccccc4)C(C)=C1C3(C)C)[C@]1(OC(C)=O)CO[C@@H]1C[C@@H]2O [Taxol]
[1]
  % Control Proliferation: 52%
[2]
  inhibition of MCF-7 cell proliferation: 50%
